Data taken from US10568852B2, “Combination compositions and their use in methods for treating obesity and obesity-related disorders” (Helmholtz Zentrum Munchen—Deutsches Forschungszentrum fur …, priority 2015, dated 2020).

Experiments:
[1] = tested on: DIO male mice; settings: 14 days, DMPP 1 mg/kg, 5 mg/kg or 10 mg/ml, daily subcutaneous injections, vs vehicle
Method: (§1) Six- to eight-week-old male C57Bl/6 mice were given ad libitum access to a high-fat, high-sugar diet comprising 58% kcal fat (D12331; Research Diets, New Brunswick, N.J.). The mice had free access to water and were maintained at 23±1° C., constant humidity and on a 12-h light-dark cycle. Mice were maintained under these conditions for a minimum of 20 weeks before study initiation. At study start, mice were randomized into groups matched for body weight and body composition. Compounds were administered subcutaneously 1 h before the onset of the dark phase. Co-administration of compounds was administered by single formulated injections. Assessment of energy intake, energy expenditure and home-cage activity were performed using an indirect calorimetry system (TSE Phenotmaster, TSE Systems, Bad Homburg, Germany).
To assess the effect of DMPP alone on the body weight and food intake, diet-induced obese (DIO) male mice were treated 14 days with vehicle (control) or DMPP (1 mg/kg, 5 mg/kg or 10 mg/ml). Compounds were administered by daily subcutaneous injections.

[2] = tested on: DIO male mice; assay: Glucose tolerance (intraperitoneal glucose challenge) in DIO mice; assay type: in vivo; settings: 7-days treatment, daily subcutaneous injections, vs vehicle
Method: We also investigated the effect of DMPP alone on glucose tolerance and area under the curve (AUC). Glucose tolerance was assessed following 7-days treatment of DIO male mice with vehicle (control) or DMPP (1 mg/kg, 5 mg/kg or 10 mg/ml). Compounds were administered by daily subcutaneous injections.
Glucose tolerance was assessed following 7-days treatment of DIO male mice with vehicle (control) or icilin (6 mg/kg). […] Compounds were administered by daily subcutaneous injections.
Glucose tolerance was assessed following 7-days treatment of DIO male mice with vehicle (control), DMPP alone (10 mg/kg), icilin alone (5 mg/kg) or DMPP (10 mg/ml)+icilin (5 mg/kg). Compounds were administered by daily subcutaneous injections.

[3] = tested on: DIO male mice; assay: Body weight of diet-induced obese mice under daily subcutaneous treatment; assay type: in vivo; settings: daily subcutaneous injections, vs vehicle
Method: as §1
To assess the effect of icilin alone on the body weight and food intake, DIO male mice were treated 16 days with vehicle (control) or icilin (0.6 mg/kg or 6 mg/kg). […] Compounds were administered by daily subcutaneous injections.
To assess the effect of the combination therapy on the body weight, DIO male mice were treated 4 days with vehicle (control), DMPP alone (10 mg/kg), icilin alone (5 mg/kg) or DMPP (10 mg/ml)+icilin (5 mg/kg). Compounds were administered by daily subcutaneous injections. […]

[4] = tested on: DIO male mice; assay: Fasting glucose in DIO mice; assay type: in vivo; settings: 23-days treatment, icilin 6 mg/kg, daily subcutaneous injections, vs vehicle
Method: Glucose tolerance was analyzed in 6 h fasted mice, following an intraperitoneal challenge with 1.5 g glucose per kg body weight. Glucose levels were measured in blood sampled from the tail veins before (0 min) and at 15, 30, 60 and 120 min post injection. To measure glucose-stimulated insulin secretion blood was collected from tail veins into EDTA-coated microvette tubes (Sarstedt) at time points 0, 15 and 60 min post glucose injection. Insulin sensitivity was assessed in 6 h fasted mice following an intraperitoneal injection of 0.7 U of insulin (Actrapid) per kg body weight. Blood glucose levels were measured before (0 min) and at 15, 30, 60 and 120 minutes after the insulin injection. Insulin was measured with commercially available kit (ALPCO Diagnostics, Salem, N.H.) per the manufacturer's instructions.
Glucose tolerance was assessed following 7-days treatment of DIO male mice with vehicle (control) or icilin (6 mg/kg). The results are shown in FIG. 3(D) (control: white; icilin: black). Fasting glucose was assessed following 23-days treatment of DIO male mice with vehicle (control) or icilin (6 mg/kg). Compounds were administered by daily subcutaneous injections. The results are shown in FIG. 3(E) (control: white bar; icilin: black bar).

[5] = tested on: DIO male mice; assay: Energy expenditure (indirect calorimetry) in DIO mice; assay type: in vivo; settings: 5-days treatment, icilin 6 mg/kg, daily subcutaneous injections, vs vehicle
Method: To assess the effect of icilin alone on the body weight and food intake, DIO male mice were treated 16 days with vehicle (control) or icilin (0.6 mg/kg or 6 mg/kg). The results of these treatments are shown in FIGS. 3(A) and 3(B) (control: white circle; icilin: 0.6 mg/kg (star) or 6 mg/kg (black circle)). The effect on energy expenditure was investigated by a 5-days treatment of DIO male mice with vehicle (control) or icilin (6 mg/kg). Compounds were administered by daily subcutaneous injections. The results of these treatments are shown in FIG. 3(C) (control: white bar; icilin: black bar).

## C[N+]1(C)CCN(c2ccccc2)CC1 [DMPP, dimethylphenylpiperazinium]
[1]
  effect on food intake: reduction in food intake
[2]; DMPP 1 mg/kg, 5 mg/kg or 10 mg/ml
  effect on glucose tolerance and area under the curve (AUC): dose-dependent improvement in glucose tolerance
[3]; 14 days, DMPP 1 mg/kg, 5 mg/kg or 10 mg/ml
  effect on body weight: dose-dependent weight lowering effect

## O=C1NC(c2cccc([N+](=O)[O-])c2)=CCN1c1ccccc1O [icilin, 3-(2-hydroxyphenyl)-6-(3-nitrophenyl)-3,4-dihydropyrimidin-2(1H)-one]
[4]
  effect on fasting glucose: improved fasting glucose levels
[5]
  effect on energy expenditure: increased energy expenditure
[2]; icilin 6 mg/kg
  effect on glucose tolerance: does not lead to a short term improvement in glucose tolerance
[3]; 16 days, icilin 0.6 mg/kg or 6 mg/kg
  effect on body weight: dose-dependent weight loss
